Organism: Rattus norvegicus
Assay: Open TG-GATES - Regimen: Single
Format: toxicity, organism-based, Sprague-Dawley
Design: regimen Single, gender Male, age 6 weeks
Details: in vivo, po, 100 mg/kg, route gavage, dose level Low; for APTT / Bas / Eos / Fbg / Hb / Ht / Lym / MCH / MCHC / MCV / Mono / Neu / PT / Plat / RBC / Ret / WBC: tissue Blood; for KIDNEY_L / KIDNEY_R / KIDNEY_TOTAL: tissue Kidney; for LIVER: tissue Liver; for A/G / ALP / ALT / AST / BUN / CRE / Ca / Cl / DBIL / GLC / IP / K / LDH / Na / PL / RALB / TBIL / TC / TG / TP / gamma-GTP: tissue Plasma

## Cc1nnc2n1-c1ccc(Cl)cc1C(c1ccccc1Cl)=NC2 [TRIAZOLAM]
3 h
  TERMINAL_BW: 192 g
  APTT: 17.6 s
  Bas: 0%
  Eos: 1%
  Fbg: 279.8 mg/dL
  Hb: 13.9 g/dL
  Ht: 42.1%
  Lym: 75%
  MCH: 21 pg
  MCHC: 33%
  MCV: 63.8 fL
  Mono: 3%
  Neu: 20.4%
  PT: 13.5 s
  Plat: 121.2 x10_4/uL
  RBC: 661.2 x10_4/ul
  Ret: 9.1%
  WBC: 73.1 x10_2/uL
  KIDNEY_L: 0.9 g
  KIDNEY_R: 0.8 g
  KIDNEY_TOTAL: 1.7 g
  LIVER: 8 g
  A/G: 0.9
  ALP: 1479.6 IU/L
  ALT: 40.8 IU/L
  AST: 75.4 IU/L
  BUN: 9.4 mg/dL
  CRE: 0.2 mg/dL
  Ca: 11 mg/dL
  Cl: 104.2 meq/L
  DBIL: 0.008 mg/dL
  GLC: 176.4 mg/dL
  IP: 10.2 mg/dL
  K: 4.3 meq/L
  LDH: 80.4 IU/L
  Na: 141.4 meq/L
  PL: 144.4 mg/dL
  RALB: 2.4 g/dL
  TBIL: 0.062 mg/dL
  TC: 75.8 mg/dL
  TG: 40.6 mg/dL
  TP: 5.1 g/dL
  gamma-GTP: 1.4 IU/L
6 h
  TERMINAL_BW: 189.9 g
  APTT: 19.9 s
  Bas: 0%
  Eos: 0.8%
  Fbg: 284 mg/dL
  Hb: 13.9 g/dL
  Ht: 42.5%
  Lym: 76.8%
  MCH: 21.1 pg
  MCHC: 32.6%
  MCV: 64.7 fL
  Mono: 2.2%
  Neu: 19.6%
  PT: 13.4 s
  Plat: 121.9 x10_4/uL
  RBC: 657.4 x10_4/ul
  Ret: 9.3%
  WBC: 73 x10_2/uL
  KIDNEY_L: 0.9 g
  KIDNEY_R: 0.9 g
  KIDNEY_TOTAL: 1.7 g
  LIVER: 8.1 g
  A/G: 0.9
  ALP: 1351.6 IU/L
  ALT: 40.4 IU/L
  AST: 69.8 IU/L
  BUN: 7.6 mg/dL
  CRE: 0.1 mg/dL
  Ca: 10.9 mg/dL
  Cl: 104.4 meq/L
  DBIL: 0.008 mg/dL
  GLC: 186.2 mg/dL
  IP: 10.5 mg/dL
  K: 4.2 meq/L
  LDH: 70 IU/L
  Na: 140.8 meq/L
  PL: 142.8 mg/dL
  RALB: 2.5 g/dL
  TBIL: 0.062 mg/dL
  TC: 78.6 mg/dL
  TG: 34 mg/dL
  TP: 5.1 g/dL
  gamma-GTP: 1.2 IU/L
9 h
  TERMINAL_BW: 190.1 g
  APTT: 18.1 s
  Bas: 0%
  Eos: 1.6%
  Fbg: 285.4 mg/dL
  Hb: 13.4 g/dL
  Ht: 41%
  Lym: 73.8%
  MCH: 20.6 pg
  MCHC: 32.7%
  MCV: 63 fL
  Mono: 2.2%
  Neu: 21.6%
  PT: 13.7 s
  Plat: 122.5 x10_4/uL
  RBC: 651.2 x10_4/ul
  Ret: 9.4%
  WBC: 68 x10_2/uL
  KIDNEY_L: 0.9 g
  KIDNEY_R: 0.9 g
  KIDNEY_TOTAL: 1.7 g
  LIVER: 7.5 g
  A/G: 0.9
  ALP: 1617.4 IU/L
  ALT: 35.8 IU/L
  AST: 65.4 IU/L
  BUN: 8.4 mg/dL
  CRE: 0.1 mg/dL
  Ca: 10.8 mg/dL
  Cl: 105 meq/L
  DBIL: 0.014 mg/dL
  GLC: 181.8 mg/dL
  IP: 10.6 mg/dL
  K: 4.5 meq/L
  LDH: 68.8 IU/L
  Na: 141 meq/L
  PL: 150.6 mg/dL
  RALB: 2.4 g/dL
  TBIL: 0.062 mg/dL
  TC: 75.4 mg/dL
  TG: 65 mg/dL
  TP: 5.2 g/dL
  gamma-GTP: 1 IU/L
24 h
  TERMINAL_BW: 208.4 g
  APTT: 20.1 s
  Bas: 0%
  Eos: 1%
  Fbg: 279 mg/dL
  Hb: 13.3 g/dL
  Ht: 40.5%
  Lym: 69%
  MCH: 20.7 pg
  MCHC: 32.8%
  MCV: 63.2 fL
  Mono: 3.2%
  Neu: 26.2%
  PT: 13.4 s
  Plat: 123.8 x10_4/uL
  RBC: 640.8 x10_4/ul
  Ret: 8.2%
  WBC: 109.3 x10_2/uL
  KIDNEY_L: 0.9 g
  KIDNEY_R: 0.9 g
  KIDNEY_TOTAL: 1.8 g
  LIVER: 9.2 g
  A/G: 0.9
  ALP: 1675 IU/L
  ALT: 41.6 IU/L
  AST: 68.2 IU/L
  BUN: 12 mg/dL
  CRE: 0.2 mg/dL
  Ca: 11.3 mg/dL
  Cl: 104.2 meq/L
  DBIL: 0.01 mg/dL
  GLC: 183.6 mg/dL
  IP: 9.4 mg/dL
  K: 4.1 meq/L
  LDH: 91 IU/L
  Na: 141.2 meq/L
  PL: 158.2 mg/dL
  RALB: 2.5 g/dL
  TBIL: 0.06 mg/dL
  TC: 82.2 mg/dL
  TG: 83.8 mg/dL
  TP: 5.4 g/dL
  gamma-GTP: 1.2 IU/L

— ChEMBL document CHEMBL3885861, “Open TG-GATES”
